The values below come from patent US10328011B2, “Use of proline containing dipeptides” (DSM IP ASSETS B.V., priority 2015, dated 2019).

Holding throughout (assay type): cell-based
One test concerns LOXL2. Description: Gene-expression analysis in normal human dermal fibroblasts: LOXL2. To be noted: peptide 0.01%, 24 hrs. How it is done: LOXL2: This gene encodes a member of the lysyl oxidase gene family that catalyses the first step in the formation of crosslinks in collagens.
(§1) Normal human dermal fibroblasts at passage 7 from a donor were cultured in DMEM with L-glutamine 2 mM, Penicillin 50 U/ml-Streptomycin 50 ug/ml and 10% FCS in a 5% CO2 atmosphere at 37° C. After equilibration of cell in 1% FCS for 24 hrs the respective peptides H-(beta-Ala)-Pro-Dab-NH-benzyl [CAS 823202-99-9], respectively N-palmitoyl-Gly-His-Lys [147732-56-7]/N-palmitoyl-Gly-Gln-Pro-Arg [221227-C5-0] (2:1) diluted in growth medium to a concentration of 0.01% were added and the cells were incubated for an additional 24 hrs. At the end of incubation cells were washed in PBS and immediately frozen at −80° C. Total RNA was extracted using NucleoSpin RNA Plus kit (Macherey-Nagel) according to supplier's instructions. cDNA was synthesized by reverse transcription of total RNA using Transcriptor Reverse Transcriptase (Roche). PCR was performed on a LightCycler device (Roche Molecular Systems Inc.) according to manufacturer's instructions. Raw data were analyzed using Microsoft Excel.

Another test concerns PLOD3. The experiment in a line: Gene-expression analysis in normal human dermal fibroblasts: PLOD3. To be noted: 24 hrs. The method, then: PLOD3: The enzyme catalyzes the hydroxylation of lysyl residues in collagen-like peptides. The resultant hydroxylysyl groups are attachment sites for carbohydrates in collagen and thus are critical for the stability of intermolecular crosslinks.
as §1

For the next test, the system named is ADAMTS2. The experiment in a line: Gene-expression analysis in normal human dermal fibroblasts: ADAMTS2. The conditions noted are these: peptide 0.01%, 24 hrs. How it is done: ADAMTS2 is responsible for processing several types of procollagen proteins. Specifically, this enzyme clips a short chain of amino acids off one end of the procollagen. This clipping step is necessary for collagen molecules to function normally and assemble into fibrils outside cells.
as §1

Another test has as its system PCOLCE. The experiment in a line: Gene-expression analysis in normal human dermal fibroblasts: PCOLCE. The conditions noted are these: peptide 0.01%, 24 hrs. The method, then:
PCOLCE: This gene encodes a glycoprotein which binds and drives the enzymatic cleavage of type I procollagen upon secretion from the cell, to yield the mature triple helical, highly structured fibrils.
as §1

Turning to “H-(beta-Ala)-Pro-Dab-NH-benzyl [H-(β-Ala)-Pro-Dab-NH-benzyl]”, the LOXL2 gene expression in the test with LOXL2 stood at 237%. The PLOD3 gene expression in the test on PLOD3 (normal human dermal fibroblasts, peptide 0.01%) was determined as 299%. Besides, the “upregulation of genes involved in collagen fiber maturation (in words)” value with PLOD3 (summary over PLOD3, LOXL2, PCOLCE, ADAMTS2, fibroblasts, 0.01%) is on record as “significantly upregulates”. Besides, the ADAMTS2 gene expression in the test with ADAMTS2 was determined as 151%. Also, the PCOLCE gene expression in the test on PCOLCE was 137%.
